Laboratory results reported in the supplement of paper PMC10307832.

How the values were obtained:
Test in all cases: relative viability (nuclei count vs DMSO), 5 days (fraction); higher = more cells survive
JZL-184 + Olaparib = compound: C1CN(CCC1C(C2=CC3=C(C=C2)OCO3)(C4=CC5=C(C=C4)OCO5)O)C(=O)OC6=CC=C(C=C6)[N+](=O)[O-] [JZL-184] + O=C(c1cc(Cc2n[nH]c(=O)c3ccccc23)ccc1F)N1CCN(C(=O)C2CC2)CC1 [Olaparib] (partner 8 µM)
Outline: (§1)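 Relative viability divides the nuclei count in treated wells by that in vehicle wells. Lung cancer cell lines were seeded in 1536-well plates, dosed by pin tool the next day, and fixed and stained after 5 days in one step with final 0.05% Triton X-100, 1% formaldehyde and 1 ug/ml Hoechst. Dosing was a single drug or a fixed anchor-drug dose plus five library-drug doses (not always all listed) in √10 steps, and values are medians of duplicate plates imaged at 4×.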

JZL-184 + Pictilisib = compound: C1CN(CCC1C(C2=CC3=C(C=C2)OCO3)(C4=CC5=C(C=C4)OCO5)O)C(=O)OC6=CC=C(C=C6)[N+](=O)[O-] [JZL-184] + CS(=O)(=O)N1CCN(Cc2cc3nc(-c4cccc5[nH]ncc45)nc(N4CCOCC4)c3s2)CC1 [Pictilisib] (partner 1 µM)
Outline: as §1

JZL-184 + Crizotinib = compound: C1CN(CCC1C(C2=CC3=C(C=C2)OCO3)(C4=CC5=C(C=C4)OCO5)O)C(=O)OC6=CC=C(C=C6)[N+](=O)[O-] [JZL-184] + C[C@@H](Oc1cc(-c2cnn(C3CCNCC3)c2)cnc1N)c1c(Cl)ccc(F)c1Cl [Crizotinib] (partner 1 µM)
Outline: as §1

JZL-184 + Trametinib = compound: C1CN(CCC1C(C2=CC3=C(C=C2)OCO3)(C4=CC5=C(C=C4)OCO5)O)C(=O)OC6=CC=C(C=C6)[N+](=O)[O-] [JZL-184] + CC(=O)Nc1cccc(-n2c(=O)n(C3CC3)c(=O)c3c(Nc4ccc(I)cc4F)n(C)c(=O)c(C)c32)c1 [Trametinib] (partner 0.02 µM)
Outline: as §1

JZL-184 + AZD7762 = compound: C1CN(CCC1C(C2=CC3=C(C=C2)OCO3)(C4=CC5=C(C=C4)OCO5)O)C(=O)OC6=CC=C(C=C6)[N+](=O)[O-] [JZL-184] + NC(=O)Nc1cc(-c2cccc(F)c2)sc1C(=O)N[C@H]1CCCNC1 [AZD7762] (partner 0.2 µM)
Outline: as §1

Row | Cell Line | relative viability (JZL-184 + Olaparib; first compound 0.04 µM) | relative viability (JZL-184 + Olaparib; first compound 0.4 µM) | relative viability (JZL-184 + Olaparib; first compound 1.265 µM) | relative viability (JZL-184 + Olaparib; first compound 4 µM) | relative viability (JZL-184 + Pictilisib; first compound 0.04 µM) | relative viability (JZL-184 + Pictilisib; first compound 0.4 µM) | relative viability (JZL-184 + Pictilisib; first compound 1.265 µM) | relative viability (JZL-184 + Pictilisib; first compound 4 µM) | relative viability (JZL-184 + Crizotinib; first compound 0.04 µM) | relative viability (JZL-184 + Crizotinib; first compound 0.4 µM) | relative viability (JZL-184 + Crizotinib; first compound 1.265 µM) | relative viability (JZL-184 + Crizotinib; first compound 4 µM) | relative viability (JZL-184 + Trametinib; first compound 0.04 µM) | relative viability (JZL-184 + Trametinib; first compound 0.4 µM) | relative viability (JZL-184 + Trametinib; first compound 1.265 µM) | relative viability (JZL-184 + Trametinib; first compound 4 µM) | relative viability (JZL-184 + AZD7762; first compound 0.04 µM) | relative viability (JZL-184 + AZD7762; first compound 0.4 µM) | relative viability (JZL-184 + AZD7762; first compound 1.265 µM) | relative viability (JZL-184 + AZD7762; first compound 4 µM)
1 | IA-LM | 0.987 | 0.737 | 0.827 | 0.82 | 0.456 | 0.361 | 0.376 | 0.312 | 0.988 | 0.467 | 0.74 | 0.9 |  |  |  |  |  |  |  | 
2 | ChaGo-K-1 | 0.485 | 0.411 | 0.447 | 0.41 | 1.03 | 0.585 | 1.04 | 0.741 | 1.31 | 1.08 | 1.08 | 1.06 | 0.925 | 0.849 | 0.929 | 0.788 | 0.865 | 0.761 | 0.933 | 0.832
3 | NCI-H2342 | 0.416 | 0.4 | 0.383 | 0.543 |  |  |  |  |  |  |  |  | 0.837 | 0.785 | 0.972 | 0.756 | 0.556 | 0.39 | 0.563 | 0.6
4 | SK-MES-1 | 0.792 | 0.698 | 0.765 | 0.662 | 0.348 | 0.408 | 0.389 | 0.349 | 1.03 | 0.867 | 1.01 | 0.924 | 0.623 | 0.524 | 0.609 | 0.5 |  |  |  | 
5 | ABC-1 | 0.821 | 0.814 | 0.842 | 0.829 | 0.946 | 0.71 | 0.898 | 0.625 | 1.35 | 0.925 | 1.33 | 1.21 |  |  |  |  |  |  | 0.715 | 0.968
6 | COR-L 105 | 0.686 | 0.775 | 0.663 | 0.679 | 0.448 | 0.41 | 0.368 | 0.37 | 0.985 | 0.735 | 0.822 | 0.696 | 0.454 | 0.443 | 0.439 | 0.414 |  |  |  | 
7 | NCI-H2009 | 0.785 | 0.696 | 0.734 | 0.642 | 0.985 | 0.672 | 0.914 | 0.844 | 1.15 | 1.06 | 1.02 | 1.01 | 0.228 | 0.276 | 0.329 | 0.301 |  |  |  | 
8 | NCI-H1703 | 0.521 | 0.434 | 0.576 | 0.426 | 0.265 | 0.216 | 0.288 | 0.246 | 0.865 | 0.554 | 0.726 | 0.508 |  |  |  |  | 0.106 | 0.117 | 0.129 | 0.112
9 | NCI-H2023 | 0.529 | 0.466 | 0.484 | 0.44 | 0.27 | 0.22 | 0.301 | 0.241 | 0.726 | 0.626 | 0.671 | 0.578 | 0.717 | 0.612 | 0.568 | 0.54 |  |  |  | 
10 | NCI-H1650 | 0.867 | 0.72 | 0.87 | 0.74 | 0.734 | 0.53 | 0.741 | 0.696 | 1.28 | 0.995 | 1.01 | 0.893 | 0.778 | 0.403 | 0.801 | 0.657 |  |  |  | 
11 | NCI-H1395 | 0.486 | 0.458 | 0.407 | 0.444 | 0.596 | 0.536 | 0.761 | 0.551 |  |  |  |  | 1.09 | 0.996 | 1.01 | 0.875 | 0.429 | 0.413 | 0.396 | 0.403
12 | NCI-H1793 | 0.978 | 0.911 | 0.933 | 0.861 | 0.295 | 0.214 | 0.344 | 0.31 |  |  |  |  | 0.433 | 0.481 | 0.455 | 0.438 | 0.359 | 0.465 | 0.742 | 0.401
13 | NCI-H522 | 0.709 | 0.62 | 0.648 | 0.574 |  |  |  |  |  |  |  |  | 0.856 | 0.758 | 0.791 | 0.802 | 0.898 | 0.706 | 0.885 | 0.781
14 | NCI-H520 | 0.39 | 0.369 | 0.351 | 0.304 | 0.351 | 0.221 | 0.311 | 0.245 | 0.813 | 0.707 | 0.907 | 0.665 | 0.729 | 0.63 | 0.686 | 0.651 |  |  |  | 
15 | UMC-11 | 0.349 | 0.333 | 0.308 | 0.354 | 1.16 | 0.808 | 0.984 | 0.824 | 0.787 | 0.679 | 0.555 | 0.57 | 0.891 | 0.679 | 0.736 | 0.646 |  |  |  | 
16 | SK-LU-1 | 0.593 | 0.408 | 0.463 | 0.642 | 0.631 | 0.517 | 0.7 | 0.611 | 1.05 | 0.889 | 1.15 | 1.11 | 0.448 | 0.402 | 0.653 | 0.46 |  |  |  | 
17 | SW 1573 | 0.68 | 0.351 | 0.454 | 0.479 | 0.609 | 0.364 | 0.491 | 0.498 | 0.904 | 0.724 | 0.883 | 0.759 | 0.602 | 0.564 | 0.589 | 0.445 |  |  |  | 
18 | SW 900 | 0.966 | 0.858 | 0.844 | 0.898 |  |  |  |  |  |  |  |  | 0.74 | 0.783 | 0.864 | 0.693 | 0.573 | 0.756 | 0.627 | 0.594
19 | NCI-H2228 | 1.13 | 0.613 | 0.915 | 0.977 | 0.235 | 0.311 | 0.309 | 0.518 | 0.543 | 0.442 | 0.517 | 0.511 | 0.465 | 0.472 | 0.704 | 0.629 |  |  |  | 
20 | COR-L23 | 0.379 | 0.365 | 0.315 | 0.4 | 0.945 | 0.775 | 0.842 | 0.757 | 0.704 | 0.725 | 0.723 | 0.636 | 0.774 | 0.516 | 0.684 | 0.54 |  |  |  | 
